Laboratory results from patent publication US20130095068A1, “AGENT FOR TREATING HCV INFECTION” (priority 2010, published 2013).

The compounds below were run on HCV subgenomic replicon (LucNeo#2 replicon cells) (assay: Replicon assay, intracellular luciferase activity in LucNeo#2 replicon cells). Settings: 3.3 μM, 72 hours, percentage of solvent-treated group.
Type: cell-based, Hepatitis C virus
Description: The inhibitory-effect on HCV replication and the cytotoxicity of a compound of formula (I) of the invention were examined by a replicon assay method using different HCV subgenomic replicon cells from Example 1, specifically LucNeo#2 replicon cells. The LucNeo#2 replicon cells are reporter cells created with the same concept as the luc-ubi-neo/ET replicon cells used in Test Example 1, and are utilized for analysis of the RNA replication mechanism of HCV or anti-HCV drug evaluation, but the gene sequence differs from that of luc-ubi-neo/ET replicon cells (Biochem. Biophys. Res. Commun. 343 (2006) 879-884).
(§1) LucNeo#2 replicon cells cultured to confluency were recovered by trypsin treatment, and were spread on a collagen-coated plate at a density of 20,000 cells/mL. The cell culture was conducted in an incubator at 37° C., 5% CO2, with 10% FCS/DMEM (containing mixed solution of penicillin-streptomycin, G418 and a non-essential amino acid). After 24 hours, the cells were rinsed and a compound of formula (I) was added as Test compound to final concentrations of 3.3 μM or 10 μM. At 72 hours after addition of the Test compound, the cells of one plate were rinsed, the cells were lysed with M-PER, and the intracellular luciferase activity was measured using a Promega kit. An Alamar Blue solution was also added to cells cultured under the same conditions, and the cytotoxicity was examined.
(§2) The intracellular luciferase activity and the Alamar Blue signal for cytotoxicity at 72 hours after Test compound addition were shown in Table 3 as a percentage with respect to the solvent-treated group.

SMILES	Luciferase activity [%]
COc1cc(/C=C2\CCCN([C@@H](CO)c3ccc(F)cc3)C2=O)ccc1-n1cnc(C)c1 [Test compound C, (E)-1-[(1R)-1-(4-fluorophenyl)-2-hydroxyethyl]-3-[3-methoxy-4-(4-methyl-1H-imidazol-1-yl)benzylidene]piperidin-2-one]	93.50

Same assay, conditions: 10 μM, 72 hours, percentage of solvent-treated group

SMILES	Luciferase activity [%]
COc1cc(/C=C2\CCCN([C@@H](CO)c3ccc(F)cc3)C2=O)ccc1-n1cnc(C)c1 [Test compound C, (E)-1-[(1R)-1-(4-fluorophenyl)-2-hydroxyethyl]-3-[3-methoxy-4-(4-methyl-1H-imidazol-1-yl)benzylidene]piperidin-2-one]	55.00

Same assay, conditions: LucNeo#2 replicon cells, 3.3 and 10 μM

SMILES	HCV replication inhibitory-activity (in words)
COc1cc(/C=C2\CCCN([C@@H](CO)c3ccc(F)cc3)C2=O)ccc1-n1cnc(C)c1 [Test compound C, (E)-1-[(1R)-1-(4-fluorophenyl)-2-hydroxyethyl]-3-[3-methoxy-4-(4-methyl-1H-imidazol-1-yl)benzylidene]piperidin-2-one]	potent HCV replication inhibitory-activity by reducing the luciferase activity in a dose-dependent manner

Each compound was assayed on LucNeo#2 replicon cells (assay: Cytotoxicity, Alamar Blue in LucNeo#2 replicon cells). Settings: 3.3 μM, 72 hours, percentage of solvent-treated group.
Type: cell-based
Description: as §1, §2

SMILES	Cytotoxicity (Alamar Blue signal) [%]
COc1cc(/C=C2\CCCN([C@@H](CO)c3ccc(F)cc3)C2=O)ccc1-n1cnc(C)c1 [Test compound C, (E)-1-[(1R)-1-(4-fluorophenyl)-2-hydroxyethyl]-3-[3-methoxy-4-(4-methyl-1H-imidazol-1-yl)benzylidene]piperidin-2-one]	101.00

Same assay, conditions: 10 μM, 72 hours, percentage of solvent-treated group

SMILES	Cytotoxicity (Alamar Blue signal) [%]
COc1cc(/C=C2\CCCN([C@@H](CO)c3ccc(F)cc3)C2=O)ccc1-n1cnc(C)c1 [Test compound C, (E)-1-[(1R)-1-(4-fluorophenyl)-2-hydroxyethyl]-3-[3-methoxy-4-(4-methyl-1H-imidazol-1-yl)benzylidene]piperidin-2-one]	102.00

The compounds below were run on HCV subgenomic replicon (LucNeo#2 replicon cells) (assay: HCV replication inhibition in LucNeo#2 replicon cells, luciferase corrected by cell number (Alamar Blue)). Settings: Hepatitis C virus, 96 h, read-out: Inhibition (%) at 1 uM.
Type: cell-based
Description: LucNeo#2 replicon cells, which were the HCV subgenomic replicon cells used in Test Example 2, were used to examine HCV replication inhibitory-activity, from which signals were corrected by using cell number.
LucNeo#2 replicon cells cultured to confluency were recovered by trypsin treatment, and were spread on a collagen-coated plate at a density of 1000 cells/well. The cell culture was conducted in an incubator at 37° C., 5% CO2, with 10% FBS/DMEM (containing mixed solution of penicillin-streptomycin and a non-essential amino acid). On the following day or the evening after confirmation of cell adhesion, a compound of formula (I) as the Test compound was added to final concentration of 1.0 to 1.3 μM. At 4 days after the Test compound addition, Alamar Blue diluted 5-fold with PBS(−) was added in an amount of 1/10 for measurement of the fluorescence, to determine the cell count. After the Alamar Blue measurement, the luminescence from intracellular luciferase activity was determined by adding substrate solution in an amount of 5/11 using a Promega kit.
The Alamar Blue activity and luciferase activity were determined by subtracting the values measured for wells without cells. Next, the luciferase activity value×1000 was divided by the value from Alamar Blue measurement, then, the total activity was defined as the value calculated without the Test compound, and the percentages of inhibition by the Test compound was calculated in respect to total activity and listed in Table 4.

SMILES	inhibition at 1 µM [%]
COc1cc(/C=C2\CCCN([C@@H](C)c3ccc(F)cc3)C2=O)ccc1-n1cnc(C)c1 [compound 53]	30.9

Same assay, conditions: Hepatitis C virus, 96 h; 1 uM, 4 days, luciferase activity per Alamar Blue value; read-out: Inhibition (%) at 1 uM

SMILES	inhibition at 1 µM [%]
CC(=O)c1cc(/C=C/C(=O)NC2CCc3ccccc32)ccc1-n1ccnc1 (stereo not shown) [compound 21]	81.9
CS(=O)(=O)c1cc(/C=C/C(=O)NC2CCc3ccccc32)ccc1-n1ccnc1 (stereo not shown) [compound 34]	70.2
COc1cc(/C=C/C(=O)N2C[C@H]2c2ccccc2)ccc1-n1cnc(C)c1 [compound 51]	62.2
COc1cc(/C=C/C(=O)NCCc2cccc(Cl)c2)ccc1-n1ccnc1 [compound 41]	71.8
Cc1cn(-c2ccc(/C=C/C(=O)NC3CCc4ccccc43)cc2OC2CCCC2)cn1 (stereo not shown) [compound 47]	63.8
COc1cc(/C=C2\NC(=S)N(Cc3ccccc3)C2=O)ccc1-n1cnc(C)c1 [compound 62]	68.2
COc1cc(/C=C2/C[C@H]3CCC[C@H](c4ccc(F)c(F)c4)N3C2=O)ccc1-n1cnc(C)c1 [compound 60]	50.5
Cc1cncn1-c1ccc(/C=C/C(=O)NC2CCc3ccccc32)cc1C#N (stereo not shown) [compound 25]	83.5
COc1cc(/C=C/C(=O)NC2CCCc3ccccc32)ccc1-n1ccnc1 (stereo not shown) [compound 33]	86.8
COc1cc(/C=C2\CC[C@H]3COC[C@@H](c4cc(F)c(F)c(F)c4)N3C2=O)ccc1-n1cnc(C)c1 [compound 55]	66.8
COc1cc(/C=C2\CCN([C@@H](C)c3ccc(F)cc3)C2=O)ccc1-n1cnc(C)c1 [compound 56]	65.8
COc1cc(/C=C/C(=O)N(C)Cc2ccccc2)ccc1-n1ccnc1 [compound 22]	66.3
COc1cc(/C=C\C(=O)NC2CCc3ccccc32)ccc1-n1ccnc1 (stereo not shown) [compound 30]	66.4
COCc1cc(/C=C/C(=O)NC2CCc3ccccc32)ccc1-n1ccnc1 (stereo not shown) [compound 46]	86.4
Cc1ncn(-c2ccc(/C=C/C(=O)NC3CCc4ccccc43)cc2F)c1C (stereo not shown) [compound 35]	77.2
COc1cc(/C=C/C(=O)NCCc2ccc(Cl)cc2)ccc1-n1ccnc1 [compound 48]	61.3
Cc1cn(-c2ccc(/C=C/C(=O)NC3CCc4ccccc43)cc2Br)cn1 (stereo not shown) [compound 18]	75.3
Cc1cc(/C=C/C(=O)NC2CCc3ccccc32)ccc1-n1ccnc1 (stereo not shown) [compound 31]	71
COc1cc(/C=C2\NC(=O)N(Cc3ccccc3)C2=O)ccc1-n1cnc(C)c1 [compound 59]	51.9
CC(C)Oc1cc(/C=C/C(=O)NC2CCc3ccccc32)ccc1-n1ccnc1 (stereo not shown) [compound 44]	64.6
COc1cc(/C=C2\CCCN([C@@H](CO)c3ccc(F)cc3)C2=O)ccc1-n1cnc(C)c1 [compound 54]	14.2
COc1cc(C#CC(=O)NC(C)c2ccccc2)ccc1-n1cnc(C)c1 (stereo not shown) [compound 58]	64.6
COc1cc(/C=C/C(=O)NCc2ccccc2)ccc1-n1ccnc1 [compound 28]	70.5
CCC(NC(=O)/C=C/c1ccc(-n2cnc(C)c2)c(OC)c1)c1cccnc1 (stereo not shown) [compound 36]	75.7
COc1cc(/C=C/C(=O)NCc2ccc(Cl)cc2)ccc1-n1ccnc1 [compound 13]	65.9

SMILES	inhibition at 1 µM [%]
COCc1cn(-c2ccc(/C=C/C(=O)NC3CCc4ccccc43)cc2F)cn1 (stereo not shown) [compound 43]	55.8
O=C(/C=C/c1ccc(-n2ccnc2)c(Cl)c1)NC1CCc2ccccc21 (stereo not shown) [compound 26]	75.5
COc1cc(/C=C/C(=O)N2CCC(n3c(=O)[nH]c4ccccc43)CC2)ccc1-n1ccnc1 [compound 52]	51.4
COc1cc(/C=C/C(=O)NC2Cc3ccccc3C2)ccc1-n1ccnc1 [compound 27]	69
Cc1cn(-c2ccc(/C=C/C(=O)NC3CCc4ccccc43)cc2Cl)cn1 (stereo not shown) [compound 19]	75.4
O=Cc1cc(/C=C/C(=O)NC2CCc3ccccc32)ccc1-n1ccnc1 (stereo not shown) [compound 15]	73.3
COc1cc(/C=C/C(=O)NCc2ccc(C(F)(F)F)cc2)ccc1-n1ccnc1 [compound 39]	53.2
COc1cc(/C=C/C(=O)N(CCO)Cc2ccccc2)ccc1-n1cc(C)nc1C [compound 49]	71.6
COc1cc(/C=C/C(=O)NCC2CCCCC2)ccc1-n1ccnc1 [compound 16]	71.2
C/C(=C\C(=O)NC1CCc2ccccc21)c1ccc(-n2ccnc2)c(F)c1 (stereo not shown) [compound 64]	78
COc1cc(/C(F)=C(/C)C(=O)NC2CCc3ccccc32)ccc1-n1cnc(C)c1 (stereo not shown) [compound 61]	50.5
COc1cc(/C=C2\CCCN([C@H](C)c3ccc(C#N)s3)C2=O)ccc1-n1cnc(C)c1 [compound 63]	70.7
O=C(/C=C/c1ccc(-n2ccnc2)c(C(F)(F)F)c1)NC1CCc2ccccc21 (stereo not shown) [compound 20]	76.7
CC(O)c1cc(/C=C/C(=O)NC2CCc3ccccc32)ccc1-n1ccnc1 (stereo not shown) [compound 14]	73.4
COc1cc(/C=C/C(=O)NC(Cc2ccccc2)c2ccccc2)ccc1-n1ccnc1 (stereo not shown) [compound 23]	71.6
COc1cc(/C=C/C(=O)NC2(c3ccccc3)CC2)ccc1-n1ccnc1 [compound 17]	87.7
COc1cc(/C=C/C(=O)NCc2ccccc2C(F)(F)F)ccc1-n1ccnc1 [compound 37]	77.1
COc1cc(/C=C/C(=O)NC2CCc3ccccc32)ccc1-n1cncc1Cl (stereo not shown) [compound 32]	71.8
COc1cc(/C=C/C(=O)N2CCC3(CC2)OCc2ccccc23)ccc1-n1cc(C)nc1C [compound 50]	52.3
COc1cc(/C=C/C(=O)NNCc2ccccc2)ccc1-n1ccnc1 [compound 45]	68.8
COc1cc(/C=C/C(=O)NCc2cccc(F)c2)ccc1-n1ccnc1 [compound 29]	62.8
COc1cc(/C=C/C(=O)NC(c2ccccc2)c2ccccc2)ccc1-n1ccnc1 [compound 42]	75.8
COc1ccc(CNC(=O)/C=C/c2ccc(-n3ccnc3)c(F)c2)cc1 [compound 40]	59.4
COc1ccccc1CNC(=O)/C=C/c1ccc(-n2ccnc2)c(OC)c1 [compound 38]	63.7
